Reference: patent US10555894B2, “Plant extract comprising sucrose esters as an active agent for use in cosmetic, dermatological or nutricosmetic composition” (COSMO INTERNATIONAL INGREDIENTS, priority 2014, dated 2020)

Columns and labels:
[1] = system: normal human epidermal melanocytes (NHEM); experiment: Synthesis of melanin in melanocytes stimulated by L-tyrosine; assay type: cell-based; conditions: L-tyrosine 1 mM, 10 days, tested at 5 μg/ml
Procedure: The depigmentation effect potential of the Uchuva extract has been researched in a model of normal human epidermal melanocytes (NHEM). The effect of the Uchuva extract on the synthesis of melanin has been evaluated after ten incubation days under conditions stimulated by L-tyrosine. In this test, the reference inhibitory molecule is lipoic acid. Its action mechanism calls for an inhibition of the expression of the MITF transcription factor (microphthalmia-associated transcription factor). This transcription factor is the major regulator of the expression of tyrosinase and its inhibition results in the reduction of the expression of tyrosinase, enzyme involved in the melanin synthesis. The melanocytes have been sown in 24 wells plate and cultivated in the culture medium for 24 hours. […] After incubation, the melanin has been extracted by lysis of the cells with a solution of NaOH 0.5 N. The optical density (OD) of the samples has been measured at 405 nm, then the quantity of melanin has been determined in comparison with a range of exogenous melanin (melanin curve including standards from 0.39 to 100 μg/ml). […] After dissociation of the cells and solubilisation of the formazan by addition of DMSO, the optical density (OD), which represents the number of living cells and their metabolic activity, has been measured with a 540 nm microplate reader (VERSAmax, Molecular Devices).

[2] = system: coding genes for differentiation proteins of the keratinocyte in normal human epidermal keratinocytes (NHEK); experiment: Transcriptomic analysis (Affymetrix U219 chip) of treated keratinocytes; assay type: cell-based; conditions: 0.8 μg/ml; for expression of coding genes for differentiation proteins of the keratinocyte: KRT1, IVL, DSG1, DSC1, SPRR2A, SPRR2E, SPRR1A, SPRR2D, CALML5, SBSN and KRTDAP: 4 or 24 hours; for effect on the differentiation of the keratinocytes: deduced from gene expression
Procedure: (§1) The effects of fractions I, II and […] have been researched on by transcriptomic analysis on models of normal human epidermal keratinocytes and human dermal fibroblasts. This global transcript expression analysis has been carried out after 4 to 24 hours of incubation by using the Affymetrix GeneAtlas™ platform and the U219 “full human transcriptome” chip containing 36,000 transcripts and variants.
(§2) • Cellular type: Normal human epidermal keratinocytes (NHEK) • Culture conditions: 37° C., 5% CO2 • Culture medium: Keratinocyte-SFM supplemented with Epidermal Growth Factor (EGF) 0.25 ng/ml Pituitary Extract (PE) 25 μg/ml Gentamycin 25 μg/ml • Test medium: Keratinocyte-SFM supplemented with Gentamycin 25 μg/ml Normal Human Dermal Fibroblasts (NHDF) • Cellular type: Normal human dermal fibroblasts (NHDF), • Culture conditions: 37° C., 5% CO2 • Culture medium: DMEM supplemented with • L-glutamine 2 mM • Penicillin 50 U/ml—Streptomycin 50 μg/ml • Calf foetal serum (CFS) 10% • Test medium: DMEM supplemented with • L-glutamine 2 mM • Penicillin 50 U/ml—Streptomycin 50 μg/ml • CFS 1% 2. Tested Compounds
The cells have been introduced and cultivated in the culture medium for 24 hours and then incubated in their test medium for another 24 hours. Then, the medium has been replaced by the test medium containing or not containing (control) the test compounds and the cells have been incubated for 4 or 24 hours. All the conditions have been completed in n=3.
At the end of the incubation, the culture supernatants have been removed and the cell layers have been rinsed with a PBS solution. The plates have been immediately dry frozen at −80° C.
The total RNA of each sample have been extracted using TriPure Isolation Reagent® as per the protocol recommended by the supplier. The quantity and quality of the RNA have been evaluated by capillary electrophoresis (Bioanalyzer 2100, Agilent).
The amplification of the RNA and the synthesis of the biotinylated RNA analogues (RNAa) have been carried out using the “GeneChip 3'IVT Express” kit (Affymetrix®). The single-strand complementary DNA (cDNA) have been synthesised by reverse transcription of the total RNA in the presence of oligo(dT). By action of a DNA polymerase, a double-stranded cDNA (ds DNA) has been synthesised. Biotinylated RNA have then been synthesised from the cDNA and in the presence of biotinylated ribonucleotide analogues. After a purification stage on magnetic beads, which enables to remove salts, enzymes and free nucleotides, the biotinylated RNA have been hydrolysed into fragments from 35 to 200 nucleotides with a peak at 100-120 nucleotides (fragmented targets). […]

[3] = system: coding gene for fibrillin 1 (FBN1) in normal human dermal fibroblasts (NHDF); experiment: Transcriptomic analysis (Affymetrix U219 chip) of treated fibroblasts; assay type: cell-based; conditions: 0.8 μg/ml
Procedure: as §1
as §2, with “Compounds […]” for “Compounds”
The total RNA of each sample have been extracted using TriPure Isolation Reagent® as per the protocol recommended by the supplier. The quantity and quality of the RNA have been evaluated by capillary electrophoresis (Bioanalyzer 2100, Agilent). […]

Collagen IV = experiment: Expression of Collagen IV in fibroblasts by immunocytology, fluorescence scoring; assay type: cell-based, human; conditions: positive control element, 48 hours
Procedure: The two concentrations of 4.10-5% and 8.10-5% of the Uchuva extract have been tested.
The cells are introduced on D0, in Millicell 8 wells slides, at a rate of 4.103 cells per ml in 400 μl of complete medium. They are treated on D1 for 48 hours with culture in a complete medium. The concentrations of the active to be tested are expressed in % of the extract. The stock solution of the extract has been prepared in DMSO with 20% concentration (w/v). The first dilution has been made to 1/1000th. The following dilutions have been made while maintaining the final DMSO concentration at 0.1%. After 48 hours, the cells are fixed by an alcohol/acid mixture. Then, the cells are marked using an anti-collagen IV antibody (Rockland) diluted in PBS+BSA/tween to 1/50 for 1 hour. The slides are then rinsed twice by PBS. The revelation of the specific marking is done using an FITC coupled secondary antibody (Santa-Cruz) diluted in PBS+BSA/tween to 1/100 for 1 hour. The slides are then rinsed twice by PBS and put between the slide and the cover glass using the RotiMount Fluocare+DAPI (Roth) mounting fluid.
Photos in green and blue are taken using a DP72 camera (Olympus, Japan) connected to a BX-60 epifluorescence microscope (Olympus, Japan).
The photos have been observed by two readers and a scoring of the intensity of fluorescence has done on a linear scale from 0 (no marking) to 4 (very high marking). […]

O=C(O)CCCC[C@@H]1CCSS1 (racemic) [lipoic acid]
inhibition of the synthesis of melanin [1]: 108%

CCCCCCCCCC(=O)O[C@H]1[C@@H](O[C@]2(CO)O[C@H](CO)[C@@H](O)[C@@H]2OC(=O)C(C)C)O[C@H](CO)[C@@H](OC(=O)C(C)C)[C@@H]1OC(=O)C(C)C [Fraction I, 3-O-(2-methyl-1-oxopropyl)-β-D-fructofuranosyl (1→2)-3,4-bis(2-methylpropanoate)-2-decanoate-α-D-glucopyranoside]
expression of coding genes for differentiation proteins of the keratinocyte: KRT1, IVL, DSG1, DSC1, SPRR2A, SPRR2E, SPRR1A, SPRR2D, CALML5, SBSN and KRTDAP [2]: expression inhibitions | effect on the differentiation of the keratinocytes [2]: anti differentiating effect

CCCCCCCCCC(=O)O[C@H]1[C@@H](O[C@]2(CO)O[C@H](CO)[C@@H](O)[C@@H]2OC(=O)CC(C)C)O[C@H](CO)[C@@H](OC(=O)C(C)C)[C@@H]1OC(=O)C(C)C [Fraction II, 3-O-(3-methyl-1-oxobutyl)-β-D-fructofuranosyl (1→2)-3,4-bis(2-methylpropanoate)-2-decanoate-α-D-glucopyranoside]
expression of the coding gene for fibrillin 1 (FBN1), fold change ([3]; 4 hours): 3.27 X | expression of the coding gene for fibrillin 1 (FBN1), fold change ([3]; 24 hours): 8.24 X | expression of coding genes for differentiation proteins of the keratinocyte: KRT1, IVL, DSG1, DSC1, SPRR2A, SPRR2E, SPRR1A, SPRR2D, CALML5, SBSN and KRTDAP [2]: expression inhibitions | effect on the differentiation of the keratinocytes [2]: anti differentiating effect

C[C@H](O)[C@H](O)[C@@H](O)[C@@H](O)C=O [rhamnose]
increase in expression of Collagen IV, amplitude compared with the Uchuva extract (Collagen IV): comparable
